The test system of assay [1] is actin. The assay can be described thus: TIRF assay, nucleation of actin filaments (filament number). The format is biochemical, rabbit. As to the method:
To assess how filaments generated in the presence or absence of Arp2/3 differ, a TIRF-based assay was used. Videos of representative assays are shown in Supplementary Videos 1, 2, 3 and combined in Supplementary Video 4.
(§1) Actin filament growth rate assays. Total Internal Reflection microscopy (TIRFm) was performed using a method modified from[58] using purified rabbit muscle actin and Alexa488 actin (Cytoskeleton, Inc) at a 4:1 ratio. Glass coverslips (Deckgläser) were cleaned using a modification of the method described. Briefly, coverslips were rinsed with gentle agitation in acetone (30 min), then water (5 min) then cleaned in Piranha solution (13 ml concentrated sulphuric acid and 6 ml hydrogen peroxide) for 90 min before rinsing with distilled water and ethanol, drying and coating with 1 mg/ml mPEG silane MW 2000 (Layssan Bio). TIRF reaction buffers 10× KMEI, GOC mixture, and methyl cellulose (400 cP, Sigma) were prepared in advance. 10× KMEI buffer (500 mM KCl, 100 mM Imidazole (pH 7.0), 10 mM MgCl2, 10 mM EGTA (pH 7.0)) was filtered through a sterile syringe-filter device (0.22 μm, Thermo Fisher Scientific) and stored at room temperature. GOC mixture was prepared by dissolving 20 mg of Catalase (Calbiochem) and 100 mg of Glucose-oxidase in 10 ml cold water. […]

In assay [2] the test system is actin. In words: TIRF assay, actin filament growth (elongation) rate. The format is biochemical, rabbit. To be noted: 0.5 µM actin, vs actin only. As to the method:
as §1, with “water. Undissolved particles were cleared by ultracentrifugation and 50 μl aliquots from the upper 90% of the supernatant were stored at −20 °C. 50 ml of 2% methyl cellulose was prepared by dissolving 1 g methylcellulose in 25 ml of Milli-Q water preheated to 65 °C, before adding 25 ml of room temperature water and rotating overnight at 4 °C.” for “water.”

Assay [3] has as its system Las17-GFP and Arc15-mCherry. In words: Dual-reporter lifetimes, Las17-GFP and Arc15-mCherry co-localisation. The following applies: Las17-GFP / Arc15-mCherry dual-label strain. The format is cell-based, Saccharomyces cerevisiae. As to the method: A size bar for each set of kymographs is shown on the upper right of each set. For (A) and (C) size bar is 100 nm and for B is 200 nm. Error bars are standard deviation. […] The site of interest is labelled in the first two time panels with a white arrow. Exposure 0.5 sec with 1 second time lapse. 120 s recorded. […] Error bars are standard deviation.
Individual spots were analysed for lifetimes and behaviours.
Yeast strains used in this study are listed in Supplementary table 2 and plasmids used in Supplementary table 1. Unless stated otherwise, cells were grown with rotary shaking at 30 °C in liquid YPD medium (1% yeast extract, 2% Bacto-peptone, 2% glucose supplemented with 40 μg/ml adenine) or in synthetic medium (0.67% yeast nitrogen base, 2% glucose) with appropriate supplements. […] DNA cassettes carrying mutations for integration were transformed into KAY1801. Mutant colonies were counter-selected on minimal medium, containing 0.005% uracil and 0.1% 5’-Fluoroorotic Acid (5-FOA; Melford laboratories). Allele exchange, in growing Ura3^-, 5-FOA resistant colonies, was confirmed by PCR and sequencing.
For live-cell imaging, cells expressing tagged proteins were visualised after growing to early log phase. Analysis was carried out at room temperature (22 °C). […] Images were taken simultaneously on separate scientific complementary metal oxide semiconductor (sCMOS) cameras (30 msec exposure). Seven 250 nm sections were acquired every 0.5 sec (241 time points). The stacks were then deconvolved and processed, using SoftWorx. Protein localisation and lifetime was analysed from those projections. Fiji software was used to assemble movies and kymographs, to track and record behaviour of individual spots. Graphs show mean ± SD. […] Where appropriate data was tested for normal distribution using Graphpad Prism software, and then subjected to the appropriate test as described in the methods for each experiment type.

Assay [4] has as its system Sla1 inhibition of Las17-mediated actin polymerisation. The following applies: with Arp2/3; ref [24]; cited from earlier work. The text has this:
As shown in vitro in Fig. 7D, the addition of activated Sec4 to pyrene assays does indeed rel ...

Assay [5] has the same test system. The assay can be described thus: Pyrene actin assay, alleviation of Sla1 inhibition of Las17-mediated actin polymerisation. The following applies: Arp2/3-independent, activated Sec4, Las17 300 nM, Sla1 SH3 1+2+3 300 nM, 3 µM actin. The class given is biochemical. As to the method: Fluorometry assays were performed as described previously. 370 μl assays used 3 μM actin as indicated unless otherwise specified. Pyrene-actin was added to 5%, mixed thoroughly, and added to the fluorometry cuvette. Polymerization salts, 10× KME (500 mM KCl, 10 mM MgCl2, 10 mM EGTA, 100 mM Tris-HCl [pH 8.0]) were mixed with fragments or G buffer to give final concentration of 0.5× KME before reading fluorescence. […] Experiments were carried out three separate times with different protein preparations and a representative graph shown.
Liposome binding assays were carried out as described previously. To prepare liposomes 11 μl of a 25 mg/ml solution of Folch fraction-1 was dried under a nitrogen stream. They were washed in chloroform, dried under nitrogen, and further washed with diethyl ether to remove all traces of chloroform before being dried again. […] The pellets were resuspended in 50 µl buffer B and samples were analysed by SDS-PAGE. The proportion of protein in each sample was determined by densitometry of the Coomassie stained gels using a BioRad GelDoc. […] To normalise the data the amount of protein in the supernatant and pellet of each sample was added together to give a value for 100%, and then the % in either the supernatant or pellet alone was calculated. […]

A further assay deals with Las17. To be noted: cell free extracts; ref [24]; cited from earlier work. The source says:
The model predicts an extensive interaction surface highlighted in red (Fig. 7E).

Take “Las17: Las17 fragment; residues not stated for TIRF; in b194 Las17 300–422; in b52 full length Las17-GFP in cells”: the “increase in nucleation rate compared to actin alone” value in the assay with actin [1] is listed as “two-three fold”. Further, the number of filaments in the assay on actin [1] (10 minute time point, 500 nM actin, 50 nM Las17, per unit area, errors are standard deviation, actin alone 16.3 ± 2.3) is given as 42.3 ± 7.0. Further, the “effect on elongation rate of actin filaments” value in the assay with actin [2] is “sufficient to increase the elongation rate of actin filaments”. Further, in assay [3], the “duration of co-localization of Las17-GFP and Arc15-mCherry” value was “about 15 seconds”; the “time of Arc15-mCherry alone after Las17 disassembly” value is listed as “about 4 s”; the “time of Las17 at the site before Arc15 is recruited” value was “about 22 s”.
Take Sec4: small GTPase Sec4 (full length): the “relief of Sla1-SH3 inhibition of Las17-Arp2/3-mediated actin nucleation” value in assay [4] is listed as “alleviated Sla1-SH3 domain inhibition of Las17-Arp2/3-mediated actin nucleation”. Further, the “relief of Sla1 inhibition of Las17-mediated actin polymerisation” value in assay [5] was “does indeed relieve inhibition of Las17-mediated actin polymerisation”. For the same substance, the “direct binding to Las17” value with Las17 is “could bind directly to Las17”.

Source of the values: article PMC12081870 (Communications Biology, 2025).
